{"source": "patent US10258599B2", "about": "“Compounds for use in the prevention or treatment of cancer” (SEMMELWEIS UNIVERSITY, priority 2014, dated 2019)", "key": {"[1]": {"test_system": "mouse lung adenocarcinoma tumors", "experiment": "Mouse lung adenocarcinoma xenograft model in FVB/N mice", "type": "in vivo", "procedure": "Mouse primary lung adenocarcinoma tumors maintained subcutaneously were utilized in the present study. Tumors with sizes of 3 mm in diameter were implanted subcutaneously in a total of 18 FVB/N female mice with a bodyweight of 25 g. From the day after tumor inoculation, 6-6 animals started receiving (−)-BPAP daily as a subcutaneous injection at a concentration of either 0.0001 mg/kg (low dose) or 0.05 mg/kg (high dose). Tumor sizes were measured twice a week using a digital caliper. Tumor volumes were calculated by the following formula: […]\nStatistical analyses were made by Graphpad Prism 4.03 software. Significances of changes between control and (−)-BPAP-treated groups were assessed by using Mann-Whitney U-test. Significance was declared at the standard p<0.05 level."}, "[2]": {"test_system": "catecholaminergic neurons", "experiment": "Comparison of CAE potency", "description": "All these differences in the efficiency between BPAP and Deprenyl came together from measuring their enhancer effect on the following four enhancer-sensitive brain regulations: dopaminergic, noradrenergic, serotonergic and TMS. Using the enhancer substances as specific experimental tools, we quite unexpectedly discovered the operation of an enhancer-sensitive TMS regulation in the rat brain. As expected, the majority of the enhancer-sensitive regulations and the endogenous enhancer substances pertaining to these regulations are unknown. Enhancer-research is obviously in its pioneer stage."}}}
{"smiles": "CCCN[C@H](CCC)Cc1cc2ccccc2o1", "note": "[(−)-BPAP, (2R)-1-(1-benzofuran-2-yl)-N-propylpentane-2-amine]", "values": [{"measurement": "tumor volume versus control", "setting": "[1]; high dose 0.05 mg/kg s.c. daily", "value": "did not reach statistical significance"}, {"measurement": "tumor volume versus control", "setting": "[1]; low dose 0.0001 mg/kg s.c. daily, from day 12 after implantation, p<0.05", "value": "significant differences in tumor volume"}, {"measurement": "potency as CAE substance relative to Deprenyl", "setting": "[2]", "value": "~100", "unit": "times"}]}
